The structures appear in SMILES notation.

The target in test [1] is T1, Serine/threonine-protein kinase STK11 (Homo sapiens) (UniProt Q15831).
T1 sequence (whole entry): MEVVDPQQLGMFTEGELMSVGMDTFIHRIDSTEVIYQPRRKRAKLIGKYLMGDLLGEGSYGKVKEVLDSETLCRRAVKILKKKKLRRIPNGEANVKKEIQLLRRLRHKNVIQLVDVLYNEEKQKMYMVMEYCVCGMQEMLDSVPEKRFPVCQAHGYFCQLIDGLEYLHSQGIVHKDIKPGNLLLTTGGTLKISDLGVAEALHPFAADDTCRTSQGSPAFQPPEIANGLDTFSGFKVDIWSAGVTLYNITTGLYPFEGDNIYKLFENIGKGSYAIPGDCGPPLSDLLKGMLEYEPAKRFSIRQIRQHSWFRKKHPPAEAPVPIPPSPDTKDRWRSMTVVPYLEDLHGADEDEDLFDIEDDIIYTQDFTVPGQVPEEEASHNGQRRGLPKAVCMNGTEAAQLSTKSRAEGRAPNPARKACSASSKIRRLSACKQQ
The experiment in a line: Inhibition of LKB1 (unknown origin) at 1 uM incubated for 30 mins in presence of [gamma-33P]ATP by multidrop micro reagent based assay relative to control.

Test [2] addresses Mitogen-activated protein kinase 3 (Homo sapiens) (UniProt P27361). The experiment in a line: Inhibition of ERK1 (unknown origin) at 1 uM incubated for 30 mins in presence of [gamma-33P]ATP by multidrop micro reagent based assay relative to control; values are per cent of control.
Test [3] addresses Serine/threonine-protein kinase N2 (Homo sapiens) (UniProt Q16513). The experiment in a line: Inhibition of PRK2 (unknown origin) at 1 uM incubated for 30 mins in presence of [gamma-33P]ATP by multidrop micro reagent based assay relative to control; values are per cent of control.
The target of test [4] is Ribosomal protein S6 kinase alpha-5 (Homo sapiens) (UniProt O75582). The experiment in a line: Inhibition of MSK1 (unknown origin) at 1 uM incubated for 30 mins in presence of [gamma-33P]ATP by multidrop micro reagent based assay relative to control; values are per cent of control.
Test [5] deals with Calcium/calmodulin-dependent protein kinase type 1 (Homo sapiens) (UniProt Q14012). Description: Inhibition of CaMK1 (unknown origin) at 1 uM incubated for 30 mins in presence of [gamma-33P]ATP by multidrop micro reagent based assay relative to control; values are per cent of control.
The target of test [6] is T2, Inhibitor of nuclear factor kappa-B kinase subunit beta (Homo sapiens) (UniProt O14920).
T2 sequence (whole entry): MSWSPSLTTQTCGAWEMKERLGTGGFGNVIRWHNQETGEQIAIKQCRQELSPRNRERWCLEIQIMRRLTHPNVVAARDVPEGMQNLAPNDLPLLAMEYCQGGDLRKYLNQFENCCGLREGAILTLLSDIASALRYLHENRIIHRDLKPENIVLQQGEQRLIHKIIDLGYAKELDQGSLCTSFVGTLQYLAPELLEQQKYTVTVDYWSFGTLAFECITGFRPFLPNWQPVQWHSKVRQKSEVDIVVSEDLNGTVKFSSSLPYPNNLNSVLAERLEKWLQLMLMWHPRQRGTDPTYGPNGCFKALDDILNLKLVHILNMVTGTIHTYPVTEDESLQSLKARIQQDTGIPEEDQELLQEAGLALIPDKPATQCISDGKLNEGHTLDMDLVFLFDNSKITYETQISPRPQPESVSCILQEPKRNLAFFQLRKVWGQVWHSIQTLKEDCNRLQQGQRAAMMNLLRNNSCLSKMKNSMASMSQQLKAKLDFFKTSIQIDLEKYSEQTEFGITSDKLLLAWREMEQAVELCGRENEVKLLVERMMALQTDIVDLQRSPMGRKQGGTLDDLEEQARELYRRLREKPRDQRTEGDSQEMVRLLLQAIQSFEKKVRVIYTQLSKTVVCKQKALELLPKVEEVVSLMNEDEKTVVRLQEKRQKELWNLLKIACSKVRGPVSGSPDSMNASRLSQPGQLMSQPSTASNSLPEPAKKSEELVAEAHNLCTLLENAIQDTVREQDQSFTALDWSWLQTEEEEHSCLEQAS
The experiment in a line: Inhibition of IKKbeta (unknown origin) at 1 uM incubated for 30 mins in presence of [gamma-33P]ATP by multidrop micro reagent based assay relative to control; values are per cent of control.

Test [7] addresses Mitogen-activated protein kinase 14 (Homo sapiens) (UniProt Q16539). Description: Inhibition of p38alpha MAPK (unknown origin) at 1 uM incubated for 30 mins in presence of [gamma-33P]ATP by multidrop micro reagent based assay relative to control; values are per cent of control.
For test [8], the target named is T3, Mitogen-activated protein kinase 12 (Homo sapiens) (UniProt P53778).
T3 sequence (whole entry): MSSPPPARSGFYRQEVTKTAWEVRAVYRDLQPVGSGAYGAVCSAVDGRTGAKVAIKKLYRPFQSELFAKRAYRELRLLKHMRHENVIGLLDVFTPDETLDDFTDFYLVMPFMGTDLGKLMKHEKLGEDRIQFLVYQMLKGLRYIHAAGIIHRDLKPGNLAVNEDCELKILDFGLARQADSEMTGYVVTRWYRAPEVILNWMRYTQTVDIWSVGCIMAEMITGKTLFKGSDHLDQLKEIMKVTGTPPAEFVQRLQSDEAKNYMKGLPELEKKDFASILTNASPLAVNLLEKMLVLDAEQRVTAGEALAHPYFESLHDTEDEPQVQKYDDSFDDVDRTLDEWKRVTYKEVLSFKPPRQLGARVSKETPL
Description: Inhibition of p38gamma MAPK (unknown origin) at 1 uM incubated for 30 mins in presence of [gamma-33P]ATP by multidrop micro reagent based assay relative to control; values are per cent of control.

Test [9] concerns the target Fibroblast growth factor receptor 1 (Homo sapiens) (UniProt P11362). Description: Inhibition of FGFR1 (unknown origin) at 1 uM incubated for 30 mins in presence of [gamma-33P]ATP by multidrop micro reagent based assay relative to control.

Chain of Ribosomal protein S6 kinase alpha-5 (Homo sapiens) (O75582 whole entry, looked up): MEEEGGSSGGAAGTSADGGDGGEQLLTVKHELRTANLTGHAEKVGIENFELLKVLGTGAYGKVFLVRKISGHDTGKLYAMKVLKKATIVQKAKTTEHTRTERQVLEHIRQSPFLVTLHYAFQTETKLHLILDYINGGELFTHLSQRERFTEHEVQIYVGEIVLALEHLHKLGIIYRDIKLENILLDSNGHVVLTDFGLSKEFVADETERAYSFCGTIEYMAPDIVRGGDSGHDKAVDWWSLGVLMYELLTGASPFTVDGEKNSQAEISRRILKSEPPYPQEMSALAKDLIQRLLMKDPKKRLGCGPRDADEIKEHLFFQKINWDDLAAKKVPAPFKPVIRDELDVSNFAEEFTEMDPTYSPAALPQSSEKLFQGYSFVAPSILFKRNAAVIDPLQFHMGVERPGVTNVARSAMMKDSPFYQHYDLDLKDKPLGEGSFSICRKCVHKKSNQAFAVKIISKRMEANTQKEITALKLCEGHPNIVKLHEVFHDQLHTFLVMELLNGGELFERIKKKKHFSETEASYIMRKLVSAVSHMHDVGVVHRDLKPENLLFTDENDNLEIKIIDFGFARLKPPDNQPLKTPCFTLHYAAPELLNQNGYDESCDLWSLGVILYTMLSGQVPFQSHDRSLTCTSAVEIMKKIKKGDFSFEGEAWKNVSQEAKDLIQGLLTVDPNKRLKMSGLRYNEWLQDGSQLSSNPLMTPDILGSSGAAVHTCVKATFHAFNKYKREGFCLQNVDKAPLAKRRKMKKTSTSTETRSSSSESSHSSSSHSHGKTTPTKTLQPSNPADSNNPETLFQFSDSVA
Chain of Serine/threonine-protein kinase N2 (Homo sapiens) (Q16513 whole entry, looked up): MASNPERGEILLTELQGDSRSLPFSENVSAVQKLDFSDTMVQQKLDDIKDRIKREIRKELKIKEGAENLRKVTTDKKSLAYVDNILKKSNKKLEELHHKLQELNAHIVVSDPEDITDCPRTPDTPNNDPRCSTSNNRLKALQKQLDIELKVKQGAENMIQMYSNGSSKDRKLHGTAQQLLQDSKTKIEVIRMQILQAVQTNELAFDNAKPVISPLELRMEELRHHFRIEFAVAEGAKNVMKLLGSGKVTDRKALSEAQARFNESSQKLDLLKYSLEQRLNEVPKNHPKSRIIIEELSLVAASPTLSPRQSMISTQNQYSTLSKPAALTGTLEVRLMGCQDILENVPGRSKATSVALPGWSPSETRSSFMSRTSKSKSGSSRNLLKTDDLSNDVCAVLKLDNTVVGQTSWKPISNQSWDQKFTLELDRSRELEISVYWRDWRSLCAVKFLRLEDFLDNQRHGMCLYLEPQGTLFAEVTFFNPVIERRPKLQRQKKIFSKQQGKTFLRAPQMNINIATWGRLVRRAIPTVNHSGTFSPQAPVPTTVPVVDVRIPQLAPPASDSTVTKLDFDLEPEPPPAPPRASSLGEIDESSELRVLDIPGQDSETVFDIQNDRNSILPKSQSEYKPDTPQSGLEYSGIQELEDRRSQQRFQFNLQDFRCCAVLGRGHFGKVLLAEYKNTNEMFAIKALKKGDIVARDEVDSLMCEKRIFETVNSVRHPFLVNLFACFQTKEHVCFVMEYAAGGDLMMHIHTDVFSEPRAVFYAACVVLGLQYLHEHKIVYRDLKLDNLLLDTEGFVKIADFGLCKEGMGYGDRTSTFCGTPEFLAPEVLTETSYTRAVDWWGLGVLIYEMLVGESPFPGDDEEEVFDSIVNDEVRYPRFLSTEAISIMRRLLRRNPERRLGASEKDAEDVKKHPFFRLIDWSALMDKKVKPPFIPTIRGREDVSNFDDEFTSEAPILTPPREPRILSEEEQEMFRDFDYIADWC
Chain of Fibroblast growth factor receptor 1 (Homo sapiens) (P11362 22-822 limits assumed): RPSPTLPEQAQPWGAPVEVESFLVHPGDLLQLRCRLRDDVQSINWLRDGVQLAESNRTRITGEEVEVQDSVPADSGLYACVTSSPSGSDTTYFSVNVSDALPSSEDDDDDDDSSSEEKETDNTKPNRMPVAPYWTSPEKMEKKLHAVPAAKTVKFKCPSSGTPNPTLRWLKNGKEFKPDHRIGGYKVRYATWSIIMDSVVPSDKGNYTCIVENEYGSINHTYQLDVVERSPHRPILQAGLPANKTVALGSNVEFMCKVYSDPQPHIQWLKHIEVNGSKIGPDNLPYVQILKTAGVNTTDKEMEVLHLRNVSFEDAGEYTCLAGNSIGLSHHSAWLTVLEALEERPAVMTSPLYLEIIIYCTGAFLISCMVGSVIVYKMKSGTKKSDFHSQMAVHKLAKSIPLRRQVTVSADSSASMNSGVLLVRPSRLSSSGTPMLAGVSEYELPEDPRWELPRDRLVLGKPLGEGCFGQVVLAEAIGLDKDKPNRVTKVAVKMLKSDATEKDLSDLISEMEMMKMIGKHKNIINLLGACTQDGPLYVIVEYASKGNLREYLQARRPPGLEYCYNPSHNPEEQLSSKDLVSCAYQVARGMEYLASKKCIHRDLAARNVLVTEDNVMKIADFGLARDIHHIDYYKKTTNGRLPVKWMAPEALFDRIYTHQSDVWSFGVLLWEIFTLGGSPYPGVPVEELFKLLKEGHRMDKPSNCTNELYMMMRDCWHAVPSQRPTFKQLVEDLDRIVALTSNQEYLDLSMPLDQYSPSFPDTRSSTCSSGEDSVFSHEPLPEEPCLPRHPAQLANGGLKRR
Chain of Calcium/calmodulin-dependent protein kinase type 1 (Homo sapiens) (Q14012 whole entry, looked up): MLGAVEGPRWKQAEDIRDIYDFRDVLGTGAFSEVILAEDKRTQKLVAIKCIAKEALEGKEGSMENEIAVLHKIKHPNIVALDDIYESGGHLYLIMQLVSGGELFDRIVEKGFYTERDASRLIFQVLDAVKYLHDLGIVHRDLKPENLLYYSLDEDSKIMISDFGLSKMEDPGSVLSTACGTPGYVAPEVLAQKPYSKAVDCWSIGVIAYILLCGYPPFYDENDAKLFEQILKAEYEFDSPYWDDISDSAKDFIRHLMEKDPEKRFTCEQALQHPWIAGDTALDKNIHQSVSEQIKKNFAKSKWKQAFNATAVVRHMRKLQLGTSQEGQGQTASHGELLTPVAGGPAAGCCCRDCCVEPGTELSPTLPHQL
Chain of Mitogen-activated protein kinase 14 (Homo sapiens) (Q16539 whole entry): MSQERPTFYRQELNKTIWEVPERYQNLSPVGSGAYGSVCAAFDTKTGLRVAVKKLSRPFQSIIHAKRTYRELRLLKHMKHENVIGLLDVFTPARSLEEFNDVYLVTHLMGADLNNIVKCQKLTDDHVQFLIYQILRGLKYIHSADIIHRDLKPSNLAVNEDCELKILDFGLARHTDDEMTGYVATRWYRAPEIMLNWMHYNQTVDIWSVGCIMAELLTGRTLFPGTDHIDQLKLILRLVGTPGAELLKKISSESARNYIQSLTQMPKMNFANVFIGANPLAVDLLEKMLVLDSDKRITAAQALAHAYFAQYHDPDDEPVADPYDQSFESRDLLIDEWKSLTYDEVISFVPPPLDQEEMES
Chain of Mitogen-activated protein kinase 3 (Homo sapiens) (P27361 whole entry): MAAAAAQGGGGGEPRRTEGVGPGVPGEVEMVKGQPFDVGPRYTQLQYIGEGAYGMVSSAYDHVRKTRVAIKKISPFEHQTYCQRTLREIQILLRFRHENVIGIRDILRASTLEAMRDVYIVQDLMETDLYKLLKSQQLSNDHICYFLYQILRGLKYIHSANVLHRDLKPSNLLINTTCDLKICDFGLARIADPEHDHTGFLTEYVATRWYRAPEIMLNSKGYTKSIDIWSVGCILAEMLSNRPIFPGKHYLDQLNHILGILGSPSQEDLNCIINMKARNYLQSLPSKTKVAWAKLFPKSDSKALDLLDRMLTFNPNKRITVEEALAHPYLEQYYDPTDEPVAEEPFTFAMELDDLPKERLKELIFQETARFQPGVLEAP

For `CCn1c(-c2nonc2N)nc2cnc(Oc3cccc(NC(=O)c4ccc(OCCN5CCOCC5)cc4)c3)cc21` [GSK-269962A], in test [1], the inhibition (as a rule, the relative decrease from the control value, in per cent) was determined as 58%. The residual activity is 106% in [2]; 2% in test [3]; 1% in [4]; 122% in test [5]; 83% in test [6]; 108% in test [7]. The residual activity in [8] is 72%.
On to `CC1=C(C(=O)Nc2cc3cn[nH]c3cc2F)C(c2ccc(C(F)(F)F)cc2)CC(=O)N1` (centres undefined), for which the results for the inhibition in [1] and in test [9] were 58% and 95%, respectively. Further, the residual activity is 90% in [2]; 40% in test [3]; 20% in test [4]; 102% in [5]; 97% in [6]; 103% in [7]. For the same molecule, the residual activity in test [8] was found to be 112%.
With `Cc1cncc2cccc(S(=O)(=O)N3CCCNC[C@@H]3C)c12`, the inhibition in [1] is 50%; in [9], 35%. The residual activity amounted to 105% in test [2]; 70% in [3]; 39% in [4]; 105% in [5]; 100% in test [6]; 109% in test [7]. Also, in test [8], the residual activity amounted to 101%.
`CCN(CC)CCNC(=O)c1c(C)[nH]c(/C=C2\C(=O)Nc3ccc(F)cc32)c1C`: in test [9], the inhibition is 29%. Further, the residual activity in test [3] came out at 81%; in test [4], 60%.
